This is an account of results in ChEMBL document CHEMBL1154287, “Phenylaminopyrimidines as inhibitors of Janus kinases (JAKs)” (Bioorg Med Chem Lett, 2009).

The test system of experiment [1] is BaF3. Briefly: cells. The settings on record: Mus musculus, BaF3, 72 h.
Description: Antiproliferative activity against mouse BAF3 cells expressing TEL-JAK2 kinase after 72 hrs by alamar blue assay
The target in experiment [2] is Tyrosine-protein kinase JAK2 (Homo sapiens, UniProt O60674).
Description: Inhibition of GST-tagged JAK2 kinase
Experiment [3] has as its target T1, Tyrosine-protein kinase JAK3 (Homo sapiens, UniProt P52333).
T1 sequence (P52333 whole entry): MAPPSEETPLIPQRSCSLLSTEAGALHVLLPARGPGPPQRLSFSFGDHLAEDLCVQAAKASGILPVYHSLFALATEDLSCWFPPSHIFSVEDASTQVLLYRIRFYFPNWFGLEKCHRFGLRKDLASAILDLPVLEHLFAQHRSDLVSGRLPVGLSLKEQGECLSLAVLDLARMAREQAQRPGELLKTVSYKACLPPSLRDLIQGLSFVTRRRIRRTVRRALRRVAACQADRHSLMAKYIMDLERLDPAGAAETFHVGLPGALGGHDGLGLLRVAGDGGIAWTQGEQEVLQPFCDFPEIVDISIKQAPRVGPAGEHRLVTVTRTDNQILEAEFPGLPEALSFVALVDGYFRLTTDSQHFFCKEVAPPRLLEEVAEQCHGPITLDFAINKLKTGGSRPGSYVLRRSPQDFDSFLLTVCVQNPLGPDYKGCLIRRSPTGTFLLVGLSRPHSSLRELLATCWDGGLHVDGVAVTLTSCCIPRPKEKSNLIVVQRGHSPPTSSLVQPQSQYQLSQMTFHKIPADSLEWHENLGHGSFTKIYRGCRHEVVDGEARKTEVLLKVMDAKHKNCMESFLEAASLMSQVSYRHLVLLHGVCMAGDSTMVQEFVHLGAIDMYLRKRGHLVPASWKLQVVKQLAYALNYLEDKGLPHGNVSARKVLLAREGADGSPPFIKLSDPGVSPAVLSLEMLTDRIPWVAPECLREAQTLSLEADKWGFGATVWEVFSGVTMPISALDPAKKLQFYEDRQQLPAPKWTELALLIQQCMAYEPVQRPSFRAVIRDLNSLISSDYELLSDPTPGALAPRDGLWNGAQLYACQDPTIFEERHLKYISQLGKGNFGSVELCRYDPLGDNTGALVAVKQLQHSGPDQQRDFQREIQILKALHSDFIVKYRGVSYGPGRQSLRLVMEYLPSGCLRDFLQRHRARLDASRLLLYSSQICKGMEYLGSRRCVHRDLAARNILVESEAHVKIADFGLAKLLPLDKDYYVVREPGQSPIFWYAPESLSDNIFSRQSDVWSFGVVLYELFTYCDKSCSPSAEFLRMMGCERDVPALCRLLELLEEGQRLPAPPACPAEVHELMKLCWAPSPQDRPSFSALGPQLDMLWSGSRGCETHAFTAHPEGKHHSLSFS
Description: Inhibition of GST-tagged JAK3 kinase

The test system of experiment [4] is BaF3. Briefly: cells. The conditions noted are these: Mus musculus, BaF3, 72 h. The source holds these as a separate data set.
Description: Antiproliferative activity against mouse BAF3 cells expressing TEL-JAK3 kinase after 72 hrs by alamar blue assay
Experiment [5] in a line: cells. The conditions noted are these: Mus musculus, CTLL-2, 72 h.
Description: Antiproliferative activity against IL-2-stimulated mouse CTLL-2 cells expressing JAK1/JAK3 after 72 hrs by alamar blue assay

As a reminder, the IC50 is the concentration at which inhibition is half-maximal. Low values mean greater potency, high ones weaker potency.

Bounds are passed on as bounds.

Tyrosine-protein kinase JAK2, sequence (O60674 whole entry): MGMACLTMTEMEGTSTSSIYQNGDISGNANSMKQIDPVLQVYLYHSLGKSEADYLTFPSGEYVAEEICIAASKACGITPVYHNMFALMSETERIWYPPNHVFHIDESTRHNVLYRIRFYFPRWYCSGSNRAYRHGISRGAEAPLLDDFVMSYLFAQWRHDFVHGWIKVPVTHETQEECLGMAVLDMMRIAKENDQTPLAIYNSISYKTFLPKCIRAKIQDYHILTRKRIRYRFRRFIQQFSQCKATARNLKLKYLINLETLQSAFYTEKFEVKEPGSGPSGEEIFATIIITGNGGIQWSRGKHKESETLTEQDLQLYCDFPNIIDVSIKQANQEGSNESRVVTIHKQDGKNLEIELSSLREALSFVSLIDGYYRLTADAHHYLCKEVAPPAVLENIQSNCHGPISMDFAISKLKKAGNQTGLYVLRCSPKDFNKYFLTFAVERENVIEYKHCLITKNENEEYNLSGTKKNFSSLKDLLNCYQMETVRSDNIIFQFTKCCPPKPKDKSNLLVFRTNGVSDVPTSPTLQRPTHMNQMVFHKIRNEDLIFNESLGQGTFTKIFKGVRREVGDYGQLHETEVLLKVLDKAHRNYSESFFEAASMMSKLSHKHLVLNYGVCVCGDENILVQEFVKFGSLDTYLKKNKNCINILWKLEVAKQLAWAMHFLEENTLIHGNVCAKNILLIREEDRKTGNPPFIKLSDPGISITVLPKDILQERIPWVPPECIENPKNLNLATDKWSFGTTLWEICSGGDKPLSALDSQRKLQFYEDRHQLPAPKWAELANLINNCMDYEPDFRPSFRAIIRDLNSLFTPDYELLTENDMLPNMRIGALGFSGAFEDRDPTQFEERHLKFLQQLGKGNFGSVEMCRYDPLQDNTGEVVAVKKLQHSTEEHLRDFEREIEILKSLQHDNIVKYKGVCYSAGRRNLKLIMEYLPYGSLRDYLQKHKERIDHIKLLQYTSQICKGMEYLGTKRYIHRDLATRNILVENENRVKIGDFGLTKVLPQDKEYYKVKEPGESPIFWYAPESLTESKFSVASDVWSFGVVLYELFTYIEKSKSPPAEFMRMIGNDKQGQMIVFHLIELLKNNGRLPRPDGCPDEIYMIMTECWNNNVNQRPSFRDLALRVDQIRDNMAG

On to `Cc1cc(-c2ccnc(Nc3ccc(N4CCOCC4)cc3)n2)cc(C)c1O`, for which the IC50 in experiment [1] is 3520 nM; in experiment [2], 88 nM.
On to `CC(=O)Nc1ccc(-c2ccnc(Nc3ccc(N4CCOCC4)cc3)n2)cc1`, for which the IC50 was determined as 3110 nM in experiment [1] and 67 nM in experiment [2].
For the compound `N#CCC(=O)Nc1cccc(-c2ccnc(Nc3ccc(N4CCOCC4)cc3)n2)c1`, the IC50 was 1760 nM in experiment [3]; over 20000 nM in experiment [4]; 10300 nM in experiment [1]; 18900 nM in experiment [5]; 303 nM in experiment [2].
Regarding `N#CCNC(=O)c1ccc(-c2ccnc(Nc3ccc(N4CCSCC4)cc3)n2)cc1`, the IC50 turned out to be 6240 nM in experiment [4], 2200 nM in experiment [1], 1510 nM in experiment [5] and 69 nM in experiment [2].
Consider `N#CCNC(=O)c1ccc(-c2ccnc(Nc3ccc(CN4CCS(=O)(=O)CC4)cc3)n2)cc1`, for which the concentration for half-maximal inhibition (IC50) in experiment [4] is 9980 nM; in experiment [1], 2040 nM; in experiment [5], 7900 nM; in experiment [2], 52 nM.
On to `Cc1cnc(Nc2ccc(N3CCOCC3)cc2)nc1-c1ccc(C(=O)NCC#N)cc1`, for which the IC50 came out at 85 nM in experiment [3]; 5960 nM in experiment [4]; 433 nM in experiment [1]; 240 nM in experiment [5]; 8 nM in experiment [2].
For `N#CCNC(=O)c1cccc(-c2ccnc(Nc3ccc(N4CCOCC4)cc3)n2)c1`, in that order: over 5000 nM, over 20000 nM, over 20000 nM, over 20000 nM and 545 nM.
For `N#CCNCc1cccc(-c2ccnc(Nc3ccc(N4CCOCC4)cc3)n2)c1` the same measures were over 1000 nM, over 20000 nM, 9820 nM, 8030 nM and 132 nM.
Regarding `N#CCC(=O)Nc1ccc(-c2ccnc(Nc3ccc(N4CCOCC4)cc3)n2)cc1`, the values for the half-inhibitory concentration (IC50) in experiment [4], in experiment [1] and in experiment [5] were 4200 nM, 720 nM and 915 nM, respectively.
As to `N#CCNC(=O)c1ccc(-c2ccnc(Nc3cccc(N4CCOCC4)c3)n2)cc1`, the half-maximal inhibitory concentration (IC50) in experiment [3] worked out at 1880 nM; in experiment [4], 7450 nM; in experiment [1] it was 2560 nM; in experiment [5], 3770 nM.
`COc1cc(-c2ccnc(Nc3ccc(N4CCOCC4)cc3)n2)ccc1O`: the half-maximal inhibitory concentration (IC50) in experiment [3] is 62 nM; in experiment [4], 2550 nM; in experiment [1] it was 380 nM; in experiment [5], under 160 nM; in experiment [2], 3 nM.
For `CS(=O)(=O)Nc1ccc(-c2ccnc(Nc3cccc(CN4CCCC4)c3)n2)cc1`, in that order: 110 nM, 240 nM, 234 nM, 569 nM and 6 nM.
Take `CS(=O)(=O)Nc1ccc(-c2ccnc(Nc3ccc(CN4CCCCC4)cc3)n2)cc1`: the half-inhibitory concentration (IC50) in experiment [3] worked out at 538 nM; in experiment [4] it was 730 nM; in experiment [1] it was 580 nM; in experiment [5], 735 nM; in experiment [2] it was 11 nM.
`CS(=O)(=O)Nc1ccc(-c2ccnc(Nc3cccc(CN4CCOCC4)c3)n2)cc1`: the half-maximal inhibitory concentration (IC50) in experiment [3] was 930 nM; in experiment [4], 1730 nM; in experiment [1], 812 nM; in experiment [5], 2660 nM; in experiment [2] it was 8 nM.
For `Cc1cc(-c2ccnc(Nc3ccc(N4CCOCC4)cc3)n2)ccc1C(=O)NCC#N` the same measures were over 1000 nM, 7570 nM, 2630 nM, 2040 nM and 65 nM.
On to `COc1cc(-c2ccnc(Nc3ccc(N4CCOCC4)cc3)n2)ccc1C(=O)NCC#N`, for which the IC50 stood at 9 nM in experiment [3]; 275 nM in experiment [4]; 205 nM in experiment [1]; 245 nM in experiment [5]; 30 nM in experiment [2].
For `CN(CC#N)C(=O)c1ccc(-c2ccnc(Nc3ccc(N4CCOCC4)cc3)n2)cc1` the same measures were 1420 nM, 16900 nM, 6340 nM, 4170 nM and 298 nM.
Take `CC(C)(C#N)NC(=O)c1ccc(-c2ccnc(Nc3ccc(N4CCOCC4)cc3)n2)cc1`: the IC50 worked out at 3910 nM in experiment [3], 4250 nM in experiment [4], 3720 nM in experiment [1] and 549 nM in experiment [2].
With `CS(=O)(=O)Nc1ccc(-c2ccnc(Nc3cccc(CN4CCC(O)CC4)c3)n2)cc1`, the IC50 in experiment [3] was determined as 636 nM; in experiment [4], 1940 nM; in experiment [1], 771 nM; in experiment [5], 6760 nM; in experiment [2], 12 nM.
In the case of `CS(=O)(=O)Nc1ccc(-c2ccnc(Nc3ccc(CN4CCOCC4)cc3)n2)cc1`, the concentration for half-maximal inhibition (IC50) in experiment [3] is over 1000 nM; in experiment [4] it was 1940 nM; in experiment [1], 896 nM; in experiment [5], 1670 nM; in experiment [2], 9 nM.
For `CCN(CC)CCCOc1ccc(Nc2nccc(-c3ccc(C(=O)NCC#N)cc3)n2)cc1`, in that order: 362 nM, 1100 nM, 840 nM, 3680 nM and 166 nM.
For `CS(=O)(=O)Nc1ccc(-c2ccnc(Nc3ccc(CN4CCC(O)CC4)cc3)n2)cc1`, in that order: 1620 nM, 2200 nM, 892 nM, 5610 nM and 16 nM.
For `CN1CCN(Cc2cccc(Nc3nccc(-c4ccc(NS(C)(=O)=O)cc4)n3)c2)CC1` the same measures were 960 nM, 3140 nM, 941 nM, 5180 nM and 14 nM.
For `CN1CCN(c2ccc(Nc3nccc(-c4ccc(C(=O)NCC#N)cc4)n3)cc2)CC1`, the IC50 in experiment [3] amounted to 192 nM; in experiment [4], 2050 nM; in experiment [1] it was 525 nM; in experiment [5], 1830 nM.
Consider `CN1CCN(Cc2ccc(Nc3nccc(-c4ccc(NS(C)(=O)=O)cc4)n3)cc2)CC1`, for which the half-inhibitory concentration (IC50) in experiment [3] is over 1000 nM; in experiment [4], 3430 nM; in experiment [1], 1000 nM; in experiment [5] it was 1550 nM; in experiment [2], 18 nM.
Compound `N#Cc1ccc(-c2ccnc(Nc3ccc(N4CCOCC4)cc3)n2)cc1` showed an IC50 in experiment [1] of over 20000 nM.
Turning to `CS(=O)(=O)Nc1ccc(-c2ccnc(Nc3ccc(N4CCOCC4)cc3)n2)cc1`, the IC50 was determined as 351 nM in experiment [3]; 3940 nM in experiment [4]; 396 nM in experiment [1]; 489 nM in experiment [5]; 4 nM in experiment [2].
For the compound `CS(=O)(=O)Nc1ccc(-c2ccnc(Nc3ccc(N4CCC(O)CC4)cc3)n2)cc1`, the IC50 in experiment [3] was determined as 149 nM; in experiment [4], 6550 nM; in experiment [1], 933 nM; in experiment [5], 1490 nM; in experiment [2] it was 6 nM.
Take `COc1cnc(Nc2ccc(N3CCOCC3)cc2)nc1-c1ccc(C(=O)NCC#N)cc1`: the IC50 was over 20000 nM in experiment [4], 8500 nM in experiment [1] and 6160 nM in experiment [5].
As to `N#CCNC(=O)c1ccc(-c2ccnc(Nc3ccc(N4CCOCC4)c(C(F)(F)F)c3)n2)cc1`, the 50% inhibitory concentration (IC50) was found to be 2020 nM in experiment [3], 1710 nM in experiment [4], 1240 nM in experiment [1] and 3990 nM in experiment [5].
On to `Nc1cccc(-c2ccnc(Nc3ccc(N4CCOCC4)cc3)n2)c1`, for which the concentration for half-maximal inhibition (IC50) in experiment [1] turned out to be 8520 nM; in experiment [2], 322 nM.
As for `O=C(NCc1ccco1)c1ccc(-c2ccnc(Nc3ccc(N4CCOCC4)cc3)n2)cc1`, the IC50 in experiment [1] turned out to be 5220 nM; in experiment [2], 202 nM.
Compound `c1ccc(-c2ccnc(Nc3ccc(N4CCOCC4)cc3)n2)cc1` returned an IC50 in experiment [2] of 467 nM.
For `NC(=O)c1ccc(-c2ccnc(Nc3ccc(N4CCOCC4)cc3)n2)cc1`, the IC50 in experiment [1] was 5560 nM; in experiment [2], 326 nM.
For `COc1cc(-c2ccnc(Nc3ccc(N4CCOCC4)cc3)n2)ccc1N` the same measures were 5620 nM and 16 nM.
`NS(=O)(=O)c1ccc(-c2ccnc(Nc3ccc(N4CCOCC4)cc3)n2)cc1`: in experiment [2], the half-inhibitory concentration (IC50) stood at 83 nM.
In the case of `Cc1nccn1Cc1ccc(-c2ccnc(Nc3ccc(N4CCOCC4)cc3)n2)cc1`, the IC50 in experiment [1] was 3730 nM; in experiment [2], 81 nM.
For `c1cc(-c2ccc3[nH]ccc3c2)nc(Nc2ccc(N3CCOCC3)cc2)n1`, the 50% inhibitory concentration (IC50) in experiment [1] turned out to be 7130 nM; in experiment [2], 33 nM.
